Results: paper PMC10480161, “Identification of potent and selective N-myristoyltransferase inhibitors of Plasmodium vivax liver stage hypnozoites and schizonts” (Nature Communications, 2023)
“And” between values parts separate entries of the source, which are not always exact repeats. Equal entries are not always repeated.

Key:
[1] = HepG2 cytotoxicity assay (Live/Dead staining); conditions: human, HepG2 cells
Procedure, shortened: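 HepG2 cells (5000/well) treated with compounds at 1 to 20 µM, re-dosed with fresh compound every 24 h. Viability scored at 72 h by calcein-AM/ethidium homodimer (1 µM each, 10 min, 37 °C) live/dead staining under fluorescence microscopy.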

P. falciparum NF54 = assay: P. falciparum blood stage assay (SYBR Green); assay type: cell-based, Plasmodium falciparum; conditions: 72 h; for P. falciparum blood-stage development (parasite DNA level fluorescence): untreated = 129; for IC50: Plasmodium falciparum, NF54, ring-stage parasites, relative IC50
Procedure: To assess whether any of the PvNMTis developed here could qualify as TCP-1 candidates, we assessed the effect of each compound on blood-stage P. falciparum parasites, as there is currently no well-established in vitro platform for screening P. vivax blood-stage parasites. Synchronized P. falciparum NF54 ring-stage parasites were treated for 72 h with each compound at various concentrations, ranging from 0.625 µM to 10 µM, and parasite DNA replication was measured using a fluorescent DNA binding dye (SYBR Green).
Sorbitol-synchronized P. falciparum NF54 ring-stage parasites were cultured at a parasitemia of 0.5% and hematocrit of 1.5% in a 96-well microtiter plate. Parasites were treated with each NMT inhibitor compound at 0.625, 1.25, 2.5, 5, or 10 µM for 72 h. Direct lysis of the blood cells to release the parasite DNA was performed by adding 100 μl of LBS buffer containing SYBR green I DNA binding dye to each well. […] ICEstimator regression analysis (http://www.antimalarial-icestimator.net/) was used to obtain relative IC50 values for each compound.

P. vivax schizonts = assay: P. vivax liver stage assay, schizonts; assay type: cell-based, Plasmodium vivax; conditions: for Number of liverstage Schizonts per well: 20 µM, 8 dpi; for IC50: Plasmodium vivax, Hepatocyte, 120 h, primary human hepatocytes, treatment day 5 to 8 post-infection, isolates 2 and 3
Procedure: We next evaluated the candidate compounds against liver-stage P. vivax (Fig. 5). P. vivax sporozoites were obtained from three independent patient isolates and cultured in primary human hepatocytes from a single donor lot using a 384-well microculture system as described previously. Cells were infected and treated with NMTis at 20 µM beginning day 5 post-infection until day 8 when the infection rates were quantified by fluorescent microscopy.
Accordingly, we applied dose–response curves of all the tested NMTs on parasite isolates 2 and 3 over concentrations up to 20 µM (Fig. 5c, d, Source Data file). We observed similar kinetics for all inhibitors, with a gradual decrease in parasite load upon increasing the drug concentration. […] Nuclei were counted in each well using DAPI staining as a measure of toxicity (Supplementary Fig. 86, Supplementary Source data). We used the phosphatidylinositol 4-kinase inhibitor (PI4Ki), MMV390048, as a positive control for eliminating schizonts[37],[38].
Plasmodium vivax liver stage assays were performed as described previously. Cryopreserved primary human hepatocytes (Cat No. F00995-P) and hepatocyte culture medium (HCM) (InVitroGroTM CP Medium) were obtained from Bioreclamation IVT, Inc., (Baltimore, MD, USA). Briefly, we seeded 384-well plates with primary hepatocytes from a single donor lot at a density of 25,000 cells per well. We then infected the hepatocytes with 14,000 freshly hand-dissected sporozoites per well. Cells were exposed to the compounds at indicated concentrations from day 5 post-infection. We used Pi4K inhibitor MMV390048, at 20 µM, as a positive control to eliminate P. vivax liver schizonts. We then proceeded to feed cultures every day, replacing the compounds until day 8 post-infection. Cells were fixed with 4% PFA, permeabilized with 1% Triton X-100, blocked with 2% BSA, and stained with DAPI and PvUIS4 antibodies to detect schizonts and hypnozoites forms by confocal microscopy. For antibody dilutions, PvUIS4 (kind gift from Dr. Noah Sather, Seattle Children’s Research Institute) was diluted 1:250 and the secondary antibody was anti-mouse AlexaFluor-594 (Cat # A-11005; RRID: AB_2534073) diluted 1:1000. DAPI was diluted 1:2000. The images were processed, analyzed and outlier cells were removed using IMARIS (Bitplane Inc.) image analysis software.

[2] = isolate 1, technical replicates (Fig. 5b)
[3] = isolate 2, technical replicates (Fig. 5b)
[4] = isolate 3, technical replicates (Fig. 5b)

SMILES | IC50 at 48 h [1] | P. falciparum blood-stage development (parasite DNA level fluorescence) (P. falciparum NF54; 0.625 uM) | P. falciparum blood-stage development (parasite DNA level fluorescence) (P. falciparum NF54; 1.25 uM) | P. falciparum blood-stage development (parasite DNA level fluorescence) (P. falciparum NF54; 2.5 uM) | P. falciparum blood-stage development (parasite DNA level fluorescence) (P. falciparum NF54; 5 uM) | P. falciparum blood-stage development (parasite DNA level fluorescence) (P. falciparum NF54; 10 uM) | IC50 (P. falciparum NF54) | Number of liverstage Schizonts per well (P. vivax schizonts; [2]) | Number of liverstage Schizonts per well (P. vivax schizonts; [3]) | Number of liverstage Schizonts per well (P. vivax schizonts; [4]) | Schizonts per well (P. vivax schizonts; Isolate 2, 1.25 uM) | Schizonts per well (P. vivax schizonts; Isolate 2, 2.5 uM) | Schizonts per well (P. vivax schizonts; Isolate 2, 5 uM) | Schizonts per well (P. vivax schizonts; Isolate 3, 1.25 uM) | Schizonts per well (P. vivax schizonts; Isolate 3, 2.5 uM) | Schizonts per well (P. vivax schizonts; Isolate 3, 5 uM) | IC50 (P. vivax schizonts) | schizonts (fold change to DMSO) mean diff (P. vivax schizonts; isolate 1, 20 µM) | schizonts (fold change to DMSO) mean diff (P. vivax schizonts; isolate 2, 20 µM) | schizonts (fold change to DMSO) mean diff (P. vivax schizonts; isolate 3, 20 µM) | also measured
c1cncc(CCOc2ccccc2-c2ccnc(N3CCNCC3)c2)c1 [Compound 12j] | > 20 µM | 106.8 | 108.9 | 108.6 | 101.9 | 74.22 | 1.25 µM | 0 per well (2×) and 1 per well | 2 per well and 0 per well and 1 per well | 4 per well and 3 per well | 15 per well and 18 per well and 14 per well | 13 per well and 11 per well | 11 per well and 12 per well and 13 per well | 11 per well and 19 per well | 12 per well and 16 per well | 8 per well and 11 per well | 4.9 to 6 µM | 0.983 | 0.9434 | 0.7614 | Schizonts per well (P. vivax schizonts; Isolate 3, 10 uM): 6 per well and 9 per well; Schizonts per well (P. vivax schizonts; Isolate 3, 20 uM (Fig. 5c-d)): 4 per well and 3 per well
Cc1nn(C)c(C)c1CCOc1cc(F)ccc1-c1cccc(N2CCNCC2)c1 [Compound 12f] | > 20 µM | 118.6 | 121.1 | 112.3 | 99.32 | 89.25 | 0.61 µM | 0 per well | 1 per well and 0 per well (2×) | 3 per well and 2 per well | 12 per well and 13 per well and 17 per well | 10 per well and 9 per well and 15 per well | 8 per well and 9 per well and 11 per well | 11 per well | 10 per well and 12 per well | 7 per well and 5 per well | 3.3 to 4.3 µM | 1.000 | 0.9811 | 0.8295 | Schizonts per well (P. vivax schizonts; Isolate 3, 10 uM): 3 per well and 5 per well; Schizonts per well (P. vivax schizonts; Isolate 3, 20 uM (Fig. 5c-d)): 3 per well and 2 per well
Cc1n[nH]c(C)c1CCOc1cc(F)ccc1-c1cccc(OCCN(C)C)c1 [Compound 26i] | > 20 µM | 109.6 | 112.9 | 111.2 | 93.25 | 85.5 | 0.4 µM | 2 per well (2×) and 0 per well | 2 per well (2×) and 4 per well | 3 per well and 2 per well | 14 per well and 13 per well | 14 per well and 11 per well and 12 per well | 10 per well and 9 per well and 7 per well | 12 per well and 13 per well | 10 per well and 9 per well | 8 per well and 9 per well | 3.3 to 5.2 µM | 0.933 | 0.8491 | 0.8295 | Schizonts per well (P. vivax schizonts; Isolate 2, 20 uM (Fig. 5c-d)): 2 per well and 4 per well; Schizonts per well (P. vivax schizonts; Isolate 3, 20 uM (Fig. 5c-d)): 3 per well and 2 per well
c1cncc(CCOc2cccnc2-c2cccc(N3CCNCC3)c2)c1 [Compound 12g] | > 20 µM | 115 | 117.7 | 114.7 | 99.89 | 87.22 | 0.6 µM | 0 per well | 3 per well and 4 per well and 6 per well | 3 per well | 10 per well and 11 per well and 19 per well | 11 per well and 12 per well and 16 per well | 6 per well and 8 per well and 11 per well | 13 per well and 11 per well | 7 per well and 6 per well | 8 per well and 4 per well | 2.2 to 3.1 µM | 1.000 | 0.7547 | 0.7955 | Schizonts per well (P. vivax schizonts; Isolate 2, 20 uM (Fig. 5c-d)): 3 per well and 4 per well and 6 per well; Schizonts per well (P. vivax schizonts; Isolate 3, 10 uM): 5 per well; Schizonts per well (P. vivax schizonts; Isolate 3, 20 uM (Fig. 5c-d)): 3 per well
c1cncc(CCOc2ccc3ccccc3c2-c2ccnc(N3CCNCC3)c2)c1 [Compound 30c] | > 20 µM | 126.9 | 124 | 114.3 | 101.4 | 93.99 | 0.68 µM | 0 per well (2×) and 6 per well | 3 per well and 4 per well and 6 per well | 1 per well and 3 per well | 12 per well and 14 per well and 13 per well | 9 per well and 14 per well and 11 per well | 7 per well and 10 per well and 9 per well | 13 per well and 10 per well | 12 per well and 9 per well | 7 per well and 10 per well | 2.7 to 4.9 µM | 0.900 | 0.7547 | 0.8636 | Schizonts per well (P. vivax schizonts; Isolate 2, 10 uM): 4 per well and 5 per well and 6 per well; Schizonts per well (P. vivax schizonts; Isolate 2, 20 uM (Fig. 5c-d)): 3 per well and 4 per well and 6 per well
